Results as given in article PMC8708872, “Discovery of a Novel Template, 7-Substituted 7-Deaza-4′-Thioadenosine Derivatives as Multi-Kinase Inhibitors” (Pharmaceuticals, 2021).

Assays:
Experiment in all cases: Kinome scan
Format in all cases: binding
Conditions in all cases: 1000 nM
[1] = biological target: T1, ABL1(T315I)-phosphorylated (Homo sapiens, UniProt P00519, T315I)
T1 construct: purchased Eurofins DiscoverX Corporation
How it was run: (§1)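 Binding was profiled across a 96-kinase competition panel with the test compound at 1 μM, in two independent experiments. Values are percent inhibition of binding, where a higher number indicates stronger affinity.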

ULK2 = biological target: T2, ULK2 (Homo sapiens, UniProt Q8IYT8)
T2 construct: purchased Eurofins DiscoverX Corporation
T2 sequence (Q8IYT8 whole entry): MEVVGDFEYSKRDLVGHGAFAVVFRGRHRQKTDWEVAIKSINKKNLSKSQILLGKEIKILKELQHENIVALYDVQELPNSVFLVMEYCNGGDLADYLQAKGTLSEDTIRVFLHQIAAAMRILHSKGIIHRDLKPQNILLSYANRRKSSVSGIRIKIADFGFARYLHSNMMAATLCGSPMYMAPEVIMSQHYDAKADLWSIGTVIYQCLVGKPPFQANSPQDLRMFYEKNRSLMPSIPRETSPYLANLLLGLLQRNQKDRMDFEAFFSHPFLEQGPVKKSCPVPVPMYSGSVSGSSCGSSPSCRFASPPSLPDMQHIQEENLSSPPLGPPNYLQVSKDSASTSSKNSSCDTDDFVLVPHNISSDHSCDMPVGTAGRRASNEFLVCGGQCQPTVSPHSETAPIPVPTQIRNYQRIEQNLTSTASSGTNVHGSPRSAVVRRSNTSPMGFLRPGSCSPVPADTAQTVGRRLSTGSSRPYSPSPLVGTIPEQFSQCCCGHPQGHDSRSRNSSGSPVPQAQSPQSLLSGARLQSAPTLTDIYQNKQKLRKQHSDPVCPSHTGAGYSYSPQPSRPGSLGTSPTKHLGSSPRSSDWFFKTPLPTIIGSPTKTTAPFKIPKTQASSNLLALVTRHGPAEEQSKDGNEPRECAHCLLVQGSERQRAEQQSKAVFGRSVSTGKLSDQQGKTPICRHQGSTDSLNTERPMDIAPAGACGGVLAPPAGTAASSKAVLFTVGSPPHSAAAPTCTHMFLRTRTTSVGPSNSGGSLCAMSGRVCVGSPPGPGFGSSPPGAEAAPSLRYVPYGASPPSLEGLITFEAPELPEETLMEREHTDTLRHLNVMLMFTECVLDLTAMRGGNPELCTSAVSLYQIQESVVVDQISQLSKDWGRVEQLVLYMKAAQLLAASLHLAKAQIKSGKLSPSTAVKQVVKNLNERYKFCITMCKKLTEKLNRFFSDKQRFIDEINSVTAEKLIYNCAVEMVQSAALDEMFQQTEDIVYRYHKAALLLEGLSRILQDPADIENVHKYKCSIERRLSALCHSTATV
How it was run: as §1

RIOK2 = biological target: T3, RIOK2 (Homo sapiens, UniProt Q9BVS4)
T3 construct: purchased Eurofins DiscoverX Corporation
T3 sequence (Q9BVS4 whole entry): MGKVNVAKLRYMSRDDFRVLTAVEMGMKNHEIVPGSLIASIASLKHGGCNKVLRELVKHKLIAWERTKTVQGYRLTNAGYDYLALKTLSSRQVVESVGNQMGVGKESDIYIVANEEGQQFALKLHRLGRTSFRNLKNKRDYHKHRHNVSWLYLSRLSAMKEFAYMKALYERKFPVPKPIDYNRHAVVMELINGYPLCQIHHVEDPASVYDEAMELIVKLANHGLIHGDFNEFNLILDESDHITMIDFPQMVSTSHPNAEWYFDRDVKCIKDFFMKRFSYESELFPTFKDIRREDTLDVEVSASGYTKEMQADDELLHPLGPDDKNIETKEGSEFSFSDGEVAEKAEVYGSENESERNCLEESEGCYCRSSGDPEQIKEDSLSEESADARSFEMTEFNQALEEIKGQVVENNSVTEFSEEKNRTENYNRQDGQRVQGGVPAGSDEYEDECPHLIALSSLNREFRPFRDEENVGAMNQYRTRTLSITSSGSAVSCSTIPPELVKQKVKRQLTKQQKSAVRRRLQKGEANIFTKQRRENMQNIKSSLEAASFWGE
How it was run: as §1

AKT2 = biological target: T4, AKT2 (Homo sapiens, UniProt P31751)
T4 construct: purchased Eurofins DiscoverX Corporation
T4 sequence (P31751 whole entry): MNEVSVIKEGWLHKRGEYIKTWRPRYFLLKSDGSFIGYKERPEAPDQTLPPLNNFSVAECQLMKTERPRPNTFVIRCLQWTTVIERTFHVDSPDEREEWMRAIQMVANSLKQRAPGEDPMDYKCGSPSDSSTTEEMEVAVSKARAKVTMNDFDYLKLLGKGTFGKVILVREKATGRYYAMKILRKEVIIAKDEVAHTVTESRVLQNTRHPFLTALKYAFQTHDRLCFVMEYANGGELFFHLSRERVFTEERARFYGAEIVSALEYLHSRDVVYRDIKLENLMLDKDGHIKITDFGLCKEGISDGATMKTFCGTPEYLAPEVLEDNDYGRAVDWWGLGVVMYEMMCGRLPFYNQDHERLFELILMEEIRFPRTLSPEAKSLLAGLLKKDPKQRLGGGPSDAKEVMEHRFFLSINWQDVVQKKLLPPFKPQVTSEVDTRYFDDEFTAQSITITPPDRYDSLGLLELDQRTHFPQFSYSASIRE
How it was run: as §1

p38-alpha = biological target: T5, p38-alpha (Homo sapiens, UniProt Q16539)
T5 construct: purchased Eurofins DiscoverX Corporation
T5 sequence (Q16539 whole entry): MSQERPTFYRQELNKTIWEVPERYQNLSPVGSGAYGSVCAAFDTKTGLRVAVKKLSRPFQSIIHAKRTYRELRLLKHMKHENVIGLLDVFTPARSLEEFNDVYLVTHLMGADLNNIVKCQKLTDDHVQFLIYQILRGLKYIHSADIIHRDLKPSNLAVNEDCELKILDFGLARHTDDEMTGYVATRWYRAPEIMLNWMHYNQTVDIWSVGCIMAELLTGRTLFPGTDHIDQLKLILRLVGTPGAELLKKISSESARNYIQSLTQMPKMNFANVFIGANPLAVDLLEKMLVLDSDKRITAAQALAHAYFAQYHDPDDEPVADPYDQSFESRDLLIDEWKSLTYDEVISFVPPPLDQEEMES
How it was run: as §1

EPHA2 = biological target: T6, EPHA2 (Homo sapiens, UniProt P29317)
T6 construct: purchased Eurofins DiscoverX Corporation
T6 sequence (P29317 24-976): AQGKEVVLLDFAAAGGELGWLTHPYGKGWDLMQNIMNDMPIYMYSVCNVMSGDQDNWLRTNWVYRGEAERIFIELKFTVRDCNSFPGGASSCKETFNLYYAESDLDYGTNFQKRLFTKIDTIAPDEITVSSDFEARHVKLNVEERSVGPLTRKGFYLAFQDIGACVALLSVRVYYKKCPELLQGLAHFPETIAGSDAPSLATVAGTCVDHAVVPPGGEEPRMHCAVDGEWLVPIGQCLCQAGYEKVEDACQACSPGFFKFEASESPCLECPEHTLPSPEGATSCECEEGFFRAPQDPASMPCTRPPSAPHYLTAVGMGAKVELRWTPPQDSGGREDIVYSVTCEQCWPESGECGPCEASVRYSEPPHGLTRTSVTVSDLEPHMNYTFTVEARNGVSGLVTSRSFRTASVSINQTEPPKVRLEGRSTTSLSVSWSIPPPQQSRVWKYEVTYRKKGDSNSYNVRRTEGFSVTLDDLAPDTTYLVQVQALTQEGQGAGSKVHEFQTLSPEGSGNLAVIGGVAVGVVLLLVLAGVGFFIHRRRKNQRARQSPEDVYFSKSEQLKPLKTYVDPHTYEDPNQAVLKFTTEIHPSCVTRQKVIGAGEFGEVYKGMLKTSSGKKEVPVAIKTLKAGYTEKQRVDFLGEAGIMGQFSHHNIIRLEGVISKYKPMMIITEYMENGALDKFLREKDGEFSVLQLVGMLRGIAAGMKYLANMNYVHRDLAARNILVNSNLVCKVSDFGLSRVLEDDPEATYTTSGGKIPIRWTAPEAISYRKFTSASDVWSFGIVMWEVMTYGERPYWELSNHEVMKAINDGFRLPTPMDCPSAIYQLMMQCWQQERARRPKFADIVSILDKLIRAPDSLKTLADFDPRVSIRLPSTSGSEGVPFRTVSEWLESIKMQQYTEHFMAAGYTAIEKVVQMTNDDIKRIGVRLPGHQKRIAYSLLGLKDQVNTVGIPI
How it was run: as §1

MEK2 = biological target: T7, MEK2 (Homo sapiens, UniProt P36507)
T7 construct: purchased Eurofins DiscoverX Corporation
T7 sequence (P36507 whole entry): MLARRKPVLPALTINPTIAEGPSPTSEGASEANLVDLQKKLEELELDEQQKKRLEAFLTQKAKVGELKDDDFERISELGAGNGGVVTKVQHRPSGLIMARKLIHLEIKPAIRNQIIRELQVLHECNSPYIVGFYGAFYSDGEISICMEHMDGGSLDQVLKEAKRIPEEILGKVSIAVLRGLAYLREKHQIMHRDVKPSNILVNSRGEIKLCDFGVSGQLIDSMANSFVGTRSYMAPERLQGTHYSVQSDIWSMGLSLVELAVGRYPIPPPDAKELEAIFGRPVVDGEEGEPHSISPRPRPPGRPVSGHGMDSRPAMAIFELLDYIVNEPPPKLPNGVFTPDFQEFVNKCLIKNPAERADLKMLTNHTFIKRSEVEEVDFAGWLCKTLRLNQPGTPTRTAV
How it was run: as §1

PDGFRA = biological target: T8, PDGFRA (Homo sapiens, UniProt P16234)
T8 construct: purchased Eurofins DiscoverX Corporation
T8 sequence (P16234 24-1089): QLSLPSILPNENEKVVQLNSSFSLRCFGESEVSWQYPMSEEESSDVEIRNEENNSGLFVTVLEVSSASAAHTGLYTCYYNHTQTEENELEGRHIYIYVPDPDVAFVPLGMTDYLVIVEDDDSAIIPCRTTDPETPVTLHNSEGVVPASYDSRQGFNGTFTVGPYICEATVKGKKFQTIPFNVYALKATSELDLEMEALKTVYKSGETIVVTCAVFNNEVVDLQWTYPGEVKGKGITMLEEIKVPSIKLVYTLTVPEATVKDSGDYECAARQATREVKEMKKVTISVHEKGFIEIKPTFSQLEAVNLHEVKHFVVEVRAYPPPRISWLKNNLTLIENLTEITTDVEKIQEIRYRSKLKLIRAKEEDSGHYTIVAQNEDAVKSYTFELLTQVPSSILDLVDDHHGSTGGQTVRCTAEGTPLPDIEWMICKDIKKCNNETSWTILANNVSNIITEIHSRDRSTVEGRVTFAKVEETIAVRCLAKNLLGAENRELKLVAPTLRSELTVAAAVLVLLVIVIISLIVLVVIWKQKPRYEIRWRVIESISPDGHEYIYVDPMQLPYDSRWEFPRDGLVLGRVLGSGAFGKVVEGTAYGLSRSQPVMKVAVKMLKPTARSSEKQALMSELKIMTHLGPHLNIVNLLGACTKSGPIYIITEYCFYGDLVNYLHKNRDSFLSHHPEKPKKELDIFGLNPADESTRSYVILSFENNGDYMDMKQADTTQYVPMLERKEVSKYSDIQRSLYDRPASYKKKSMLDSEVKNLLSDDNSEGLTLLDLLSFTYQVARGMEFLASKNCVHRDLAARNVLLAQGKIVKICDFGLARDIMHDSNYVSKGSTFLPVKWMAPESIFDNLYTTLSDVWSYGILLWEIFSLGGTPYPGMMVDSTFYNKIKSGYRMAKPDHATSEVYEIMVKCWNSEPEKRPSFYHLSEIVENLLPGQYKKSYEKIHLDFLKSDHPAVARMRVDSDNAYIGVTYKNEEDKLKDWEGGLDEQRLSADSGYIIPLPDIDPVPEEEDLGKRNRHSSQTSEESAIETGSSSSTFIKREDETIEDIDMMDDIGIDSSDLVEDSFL
How it was run: as §1

inhibition at 1 µM [1]: 65% | inhibition at 1 µM (ULK2): 0% | inhibition at 1 µM (RIOK2): 0% | inhibition at 1 µM (AKT2): 4% | inhibition at 1 µM (p38-alpha): 11% | inhibition at 1 µM (EPHA2): 28% | inhibition at 1 µM (MEK2): 69% | inhibition at 1 µM (PDGFRA): 0%
SMILES: C#Cc1cn([C@@H]2S[C@H](CO)[C@@H](O)[C@H]2O)c2ncnc(N)c12 [Compound 1g, (2R,3R,4S,5R)-2-(4-Amino-5-ethynyl-7H-pyrrolo[2,3-d]pyrimidin-7-yl)-5-(hydroxymethyl)tetrahydrothiophene-3,4-diol]
